Assay results as given in patent US8658646B2, “Pyrrolopyrazine kinase inhibitors” (Hoffmann-LaRoche Inc., priority 2011, dated 2014).

Target: T1, recombinant human SYK360-635 (Homo sapiens, UniProt P43405)
T1 construct: made in house
Assay: Determination of IC50 of Spleen Tyrosine Kinase (SYK) inhibition, 33P ATP filtration assay
Assay type: biochemical
Conditions: SYK aa 360-635 0.5 nM; ATP 20 μM, peptide 5 μM, 0.1% BSA; read-out: SYK_ENZYME_FILTRATION/v1, BSA
Experimental: All concentrations were final in the reaction mixture and all incubations were carried at room temperature. […] SYK Assay Information Determination of IC50 of Spleen Tyrosine Kinase (SYK) Inhibition:
SYK kinase assay is a standard kinase assay adapted to a 96 well plate format. This assay is performed in 96-well format for IC50 determination with 8 samples which represented 10 half log dilutions and a 40 μL reaction volume. The assay measures the incorporation of radiolabeled ^33P γATP into an N-terminally biotinylated peptide substrate, derived from naturally occurring phosphoacceptor consensus sequence (Biotin-11aa DY*E). […] Experimental Method:
DMSO and the mixture was incubated for 10 min at RT.
The kinase reaction was initiated by the addition of 10 μL 4× substrate cocktail containing the DYE peptide substrate [0 or 5 μM], ATP [20 μM] and ^33PγATP [2 μCi/r×n]. After incubation at 30° C. for 15 min, the reaction was terminated by the transfer of 25 μL pf the reaction sample to a 96 well 0.65 μm Millipore MADVNOB membrane/plate containing 200 μL 5 mM EDTA and 20% Streptavidine coated beads in PBS.
The unbound radionucleotides were washed under vacuum with 3×250 μL 2M NaCl; 2×250 μL 2M NaCl+1% phosphoric acid; 1×250 μL H2O. After the last wash membrane/plates were transferred to an adaptor plate, heat dried for 15 min at 60° C., and 50 μL scintillation cocktail was added to each well and 4 h later the amount of radioactivity was counted in a top counter.

Row | Compound | IC50 [nM]
1 | CC(C)NC(=O)c1c[nH]c2ncc(-c3nn(C)c4ccc(C(C)O)cc34)nc12 (stereo not shown) [Example I-269, 2-[5-(1-Hydroxy-ethyl)-1-methyl-1H-indazol-3-yl]-5H-pyrrolo[2,3-b]pyrazine-7-carboxylic acid isopropylamide] | 22.1
2 | Cn1nc(-c2cnc3[nH]cc(C(=O)NC(C)(C)C)c3n2)c2ccc(S(C)(=O)=O)cc21 [Example I-270, 2-(6-Methanesulfonyl-1-methyl-1H-indazol-3-yl)-5H-pyrrolo[2,3-b]pyrazine-7-carboxylic acid tert-butylamide] | 16.4
3 | Cn1nc(-c2cnc3[nH]cc(C(=O)N[C@H]4C[C@@H](N)C4)c3n2)c2ccc(F)cc21 [Example I-271, 2-(6-Fluoro-1-methyl-1H-indazol-3-yl)-5H-pyrrolo[2,3-b]pyrazine-7-carboxylic acid (cis-3-amino-cyclobutyl)-amide] | 30.3
4 | Cn1nc(-c2cnc3[nH]cc(C(=O)NC(C)(C)C)c3n2)c2c1CCCCC2 [Example I-272, 2-(1-Methyl-1,4,5,6,7,8-hexahydro-cycloheptapyrazol-3-yl)-5H-pyrrolo[2,3-b]pyrazine-7-carboxylic acid tert-butylamide] | 75.3
5 | Cn1cc(Cn2nc(-c3cnc4[nH]cc(C(=O)NC(C)(C)C)c4n3)c3cc(OC(F)F)ccc32)cn1 [Example I-274, 2-[5-Difluoromethoxy-1-(1-methyl-1H-pyrazol-4-ylmethyl)-1H-indazol-3-yl]-5H-pyrrolo[2,3-b]pyrazine-7-carboxylic acid tert-butylamide] | 2.5
6 | CC(C)NC(=O)c1c[nH]c2ncc(-c3nn(C)c4c3CCC(C)(C)C4)nc12 [Example I-279, 2-(1,6,6-Trimethyl-4,5,6,7-tetrahydro-1H-indazol-3-yl)-5H-pyrrolo[2,3-b]pyrazine-7-carboxylic acid isopropylamide] | 277
7 | COc1ccc2c(c1)c(-c1cnc3[nH]cc(C(=O)N[C@@H]4CCOC[C@@H]4N)c3n1)nn2C [Example I-290, 2-(5-Methoxy-1-methyl-1H-indazol-3-yl)-5H-pyrrolo[2,3-b]pyrazine-7-carboxylic acid ((3R,4R)-3-amino-tetrahydro-pyran-4-yl)-amide] | 2130
8 | COc1ccc2c(c1)c(-c1cnc3[nH]cc(C(=O)N[C@@H]4CCCC[C@@H]4N)c3n1)nn2C [Example I-291, 2-(5-Methoxy-1-methyl-1H-indazol-3-yl)-5H-pyrrolo[2,3-b]pyrazine-7-carboxylic acid ((1R,2S)-2-amino-cyclohexyl)-amide] | 1000
9 | CC(C)NC(=O)c1c[nH]c2ncc(-c3c4c(n(C)[n+]3[O-])CCCC4)nc12 [Example I-293, 2-(1-Methyl-2-oxy-4,5,6,7-tetrahydro-1H-indazol-3-yl)-5H-pyrrolo[2,3-b]pyrazine-7-carboxylic acid isopropylamide] | 2710
10 | Cn1c2c(c(-c3cnc4[nH]cc(C(=O)NC(C)(C)C)c4n3)[n+]1[O-])CCCC2 [Example I-294, 2-(1-Methyl-2-oxy-4,5,6,7-tetrahydro-1H-indazol-3-yl)-5H-pyrrolo[2,3-b]pyrazine-7-carboxylic acid tert-butylamide] | 4190
11 | Cn1nc(-c2cnc3[nH]cc(C(=O)NC(C)(C)C)c3n2)c2c1CCCC2 [Example I-295, 2-(1-Methyl-4,5,6,7-tetrahydro-1H-indazol-3-yl)-5H-pyrrolo[2,3-b]pyrazine-7-carboxylic acid tert-butylamide] | 12.6
12 | CC(C)(C)NC(=O)c1c[nH]c2ncc(-c3nn(CCC4OCCCO4)c4ccc(OC(F)F)cc34)nc12 [Example I-297, 2-[5-Difluoromethoxy-1-(2-[1,3]dioxan-2-yl-ethyl)-1H-indazol-3-yl]-5H-pyrrolo[2,3-b]pyrazine-7-carboxylic acid tert-butylamide] | 28.1
13 | CC(C)(C)NC(=O)c1c[nH]c2ncc(-c3nn(CCCN4CC(O)C4)c4ccc(OC(F)F)cc34)nc12 [Example I-300, 2-{5-Difluoromethoxy-1-[3-(3-hydroxy-azetidin-1-yl)-propyl]-1H-indazol-3-yl}-5H-pyrrolo[2,3-b]pyrazine-7-carboxylic acid tert-butylamide] | 3.1
14 | CC(C)(C)NC(=O)c1c[nH]c2ncc(-c3cccc4cc[nH]c34)nc12 [Example I-304, 2-(1H-Indol-7-yl)-5H-pyrrolo[2,3-b]pyrazine-7-carboxylic acid tert-butylamide] | 7.35
15 | CC(C)NC(=O)c1c[nH]c2ncc(-c3n[nH]c4cc(Cl)ccc34)nc12 [Example I-306, 2-(6-Chloro-1H-indazol-3-yl)-5H-pyrrolo[2,3-b]pyrazine-7-carboxylic acid isopropylamide] | 7.25
16 | CCn1nc(-c2cnc3[nH]cc(C(=O)NC(C)C)c3n2)c2ccc(Cl)cc21 [Example I-307, 2-(6-Chloro-1-ethyl-1H-indazol-3-yl)-5H-pyrrolo[2,3-b]pyrazine-7-carboxylic acid isopropylamide] | 32.6
17 | CC(C)NC(=O)c1c[nH]c2ncc(-c3nn(Cc4ccccc4)c4cc(Cl)ccc34)nc12 [Example I-308, 2-(1-Benzyl-6-chloro-1H-indazol-3-yl)-5H-pyrrolo[2,3-b]pyrazine-7-carboxylic acid isopropylamide] | 860
18 | NC(=O)c1c[nH]c2ncc(-c3nn(CC(=O)N4CCOCC4)c4cc(F)ccc34)nc12 [Example I-314, 2-[6-Fluoro-1-(2-morpholin-4-yl-2-oxo-ethyl)-1H-indazol-3-yl]-5H-pyrrolo[2,3-b]pyrazine-7-carboxylic acid amide] | 155
19 | Cn1nc(-c2cnc3[nH]cc(C(=O)NC(CO)CO)c3n2)c2ccc(Cl)cc21 [Example I-316, 2-(6-Chloro-1-methyl-1H-indazol-3-yl)-5H-pyrrolo[2,3-b]pyrazine-7-carboxylic acid (2-hydroxy-1-hydroxymethyl-ethyl)-amide] | 14.6
20 | Cn1nc(-c2cnc3[nH]cc(C(=O)NCC4CC4)c3n2)c2ccc(Cl)cc21 [Example I-317, 2-(6-Chloro-1-methyl-1H-indazol-3-yl)-5H-pyrrolo[2,3-b]pyrazine-7-carboxylic acid cyclopropylmethyl-amide] | 11.3

Continued, values first:

Row | IC50 [nM] | Compound
21 | 3.22 | COc1ccc2c(c1)c(-c1cnc3[nH]cc(C(=O)NC(C)(C)C)c3n1)nn2C [Example I-287, 2-(5-Methoxy-1-methyl-1H-indazol-3-yl)-5H-pyrrolo[2,3-b]pyrazine-7-carboxylic acid tert-butylamide]
22 | 7.95 | COc1ccc2c(c1)c(-c1cnc3[nH]cc(C(=O)NC(C)(C)CO)c3n1)nn2C [Example I-288, 2-(5-Methoxy-1-methyl-1H-indazol-3-yl)-5H-pyrrolo[2,3-b]pyrazine-7-carboxylic acid (2-hydroxy-1,1-dimethyl-ethyl)-amide]
23 | 3.78 | CC(C)(C)NC(=O)c1c[nH]c2ncc(-c3nn(CCCO)c4ccc(OC(F)F)cc34)nc12 [Example I-298, 2-[5-Difluoromethoxy-1-(3-hydroxy-propyl)-1H-indazol-3-yl]-5H-pyrrolo[2,3-b]pyrazine-7-carboxylic acid tert-butylamide]
24 | 8.5 | CC(C)(C)NC(=O)c1c[nH]c2ncc(-c3nn(CCC4CNC4)c4cc(F)ccc34)nc12 [Example I-302, 2-[1-(2-Azetidin-3-yl-ethyl)-6-fluoro-1H-indazol-3-yl]-5H-pyrrolo[2,3-b]pyrazine-7-carboxylic acid tert-butylamide]
25 | 64.1 | Cc1cc2cccc(-c3cnc4[nH]cc(C(=O)NC(C)(C)C)c4n3)c2[nH]1 [Example I-303, 2-(2-Methyl-1H-indol-7-yl)-5H-pyrrolo[2,3-b]pyrazine-7-carboxylic acid tert-butylamide]
26 | 56.8 | CC(C)(CO)NC(=O)c1c[nH]c2ncc(-n3ncc4cc(Cl)ccc43)nc12 [Example I-318, 2-(5-Chloro-indazol-1-yl)-5H-pyrrolo[2,3-b]pyrazine-7-carboxylic acid (2-hydroxy-1,1-dimethyl-ethyl)-amide]
27 | 34.6 | Cc1nn(-c2cnc3[nH]cc(C(=O)NC(C)(C)CO)c3n2)c2ccc(Cl)cc12 [Example I-319, 2-(5-Chloro-3-methyl-indazol-1-yl)-5H-pyrrolo[2,3-b]pyrazine-7 carboxylic acid (2-hydroxy-1,1-dimethyl-ethyl)-amide]
28 | 56.7 | CC(C)(CO)NC(=O)c1c[nH]c2ncc(-n3ncc4cc(F)ccc43)nc12 [Example I-320, 2-(5-Fluoro-indazol-1-yl)-5H-pyrrolo[2,3-b]pyrazine-7-carboxylic acid (2-hydroxy-1,1-dimethyl-ethyl)-amide]
29 | 150 | CC(C)(CO)NC(=O)c1c[nH]c2ncc(-n3ncc4ccccc43)nc12 [Example I-321, 2-Indazol-1-yl-5H-pyrrolo[2,3-b]pyrazine-7-carboxylic acid (2-hydroxy-1,1-dimethyl-ethyl)-amide]
30 | 25.6 | COc1ccc2c(cnn2-c2cnc3[nH]cc(C(=O)NC(C)(C)C)c3n2)c1 [Example I-323, 2-(5-Methoxy-indazol-1-yl)-5H-pyrrolo[2,3-b]pyrazine-7-carboxylic acid tert-butylamide]
31 | 108 | CC(C)(C)NC(=O)c1c[nH]c2ncc(-n3ncc4cc(Cl)ccc43)nc12 [Example I-324, 2-(5-Chloro-indazol-1-yl)-5H-pyrrolo[2,3-b]pyrazine-7-carboxylic acid tert-butylamide]
32 | 37.6 | CC(C)(C)NC(=O)c1c[nH]c2ncc(-n3ncc4cc(OC(F)F)ccc43)nc12 [Example I-325, 2-(5-Difluoromethoxy-indazol-1-yl)-5H-pyrrolo[2,3-b]pyrazine-7-carboxylic acid tert-butylamide]
33 | 43.4 | CC(C)(C)NC(=O)c1c[nH]c2ncc(-n3ncc4cc(F)ccc43)nc12 [Example I-326, 2-(5-Fluoro-indazol-1-yl)-5H-pyrrolo[2,3-b]pyrazine-7-carboxylic acid tert-butylamide]
34 | 221 | CC(C)(C)NC(=O)c1c[nH]c2ncc(-n3ncc4cc(F)c(F)cc43)nc12 [Example I-327, 2-(5,6-Difluoro-indazol-1-yl)-5H-pyrrolo[2,3-b]pyrazine-7-carboxylic acid tert-butylamide]
